# In publication PMC8448162, “Single- and Multiple-Ascending-Dose Study of the Safety, Tolerability, and Pharmacokinetics of the Polymyxin Derivative SPR206” (Antimicrobial Agents and Chemotherapy, 2021):
# Positions of bridges follow the written chain, without caps; N, C: chain ends. Non-standard residues stand in square brackets, D forms with d. Residues, ends and D or L forms follow the SMILES beside them. *: point of attachment. X1 = NC[C@@H](CC(=O)*)c1cccc(Cl)c1; Dab = NCC[C@H](N)C(=O)O; Dap = NC[C@H](N)C(=O)O
# Test: clinical
# Parameters: species or system human
# Settings: in vivo; for AUC(0-inf): AUC0–inf; for clearance: CL; for Vd: Vz
# Procedure: This was a single-center, phase 1, randomized, double-blind, placebo-controlled, first-in-human study to assess the safety, tolerability, and PK of SPR206 following SAD and MAD administrations (Fig. 7). In the SAD phase, subjects received a single i.v. dose of SPR206, and in the MAD phase, subjects received i.v. doses of SPR206 every 8 h (q8h) over a period of 7 to 14 days. SPR206 was administered as a 1 h i.v. infusion.
# Maximum plasma concentration (Cmax), area under the concentration-time curve from time zero to last measurable time point (AUC0–t), area under the concentration-time curve from time zero to infinity (AUC0–inf), area under the concentration-time curve from time zero to tau (AUC0–tau), time to maximum concentration (Tmax), terminal elimination rate constant (kel), terminal half-life (t1/2), terminal clearance (CL), and volume of distribution (Vz) were determined. In addition, area under the concentration-time curve from 0 to 24 h after the start of infusion (AUC0–24) was determined for the SAD phase, and area under the concentration-time curve from time zero to 8 h from start of infusion (AUC0–8) on day 1 and 0 to 48 h (AUC0–48) following the last dose on day 14 as well as predose trough concentrations were determined for the MAD phase. Urine parameters included cumulative amount of drug excreted in successive urine intervals (Ae), renal clearance (CLR), fraction of cumulative fraction of dose recovered in urine as unchanged drug (Fe), and percentage fraction of cumulative fraction of dose recovered in urine as unchanged drug (Fe%). PK parameters were determined by noncompartmental analysis using Phoenix WinNonlin 8.1.
# For the SAD phase, blood samples were obtained predose and at 30, 60, 75, 90, 105, 120, and 150 min and at 3, 5, 8, 12, and 24 h following the start of infusion. Urine was collected for PK assessment predose and over the intervals of 0 to 4 h, 4 to 8 h, 8 to 12 h, and 12 to 24 h after the start of infusion.
# In the MAD phase, plasma samples for PK analysis were collected (i) on day 1—pre-dose and at 30, 60, 75, 90, 105, 120, and 150 min and at 3, 5, and 8 h following start of the first infusion; (ii) prior to the morning dose (within 10 min) on days 2, 3, 5, 7, 9, 11, and 13; and (iii) predose and 30, 75, 90, 105, 120, and 150 min and 3, 5, 8, and 12 h (day 14), 24, 36 (day 15), and 48 h (day 16) following start of the last infusion. Urine was collected for PK assessment on day 1 predose, over the intervals 0 to 4 h and 4 to 8 h after start of first infusion, and on days 14 and 15 over the intervals 0 to 4 h, 4 to 8 h, 8 to 12 h, and 12 to 24 h after start of day 14 infusion. Total 24-h urine for calculating CrCl was collected from the morning of day −1 to predose on day 1 and on days 15 and 16 over the interval from 24 to 48 h after the start of the day 14 infusion. Urine creatinine concentrations were measured using 24-h collections prior to the first dose on day 1 and over the 24 to 48 h following start of infusion of the last dose (day 14). Plasma and urine samples for SPR206 levels were analyzed using a validated liquid chromatography-tandem mass spectrometry (LC-MS/MS) method. The assay range for SPR206 was 50 to 5,000 ng/ml in plasma and 100 to 50,000 ng/ml in urine. In plasma, assay precision was 1.3 to 7.7%, accuracy was 1.2 to 9.5%, stability was 194 h at 4°C, and reproducibility was 98.4%. In urine, assay precision was 1.7 to 7.5%, accuracy was −4.8 to 7.3%, stability was 147 h at 4°C, and reproducibility was 97.8%.
# Plasma and urine concentrations and PK parameters for SPR206 were summarized for each treatment using descriptive statistics. In the SAD/MAD study, geometric means were calculated for AUC and Cmax. Analyses using linear models were performed to assess dose proportionality (both single dose and multiple dose), time dependence, accumulation, and attainment of steady state after multiple doses. […]
smiles,measurement,setting,value
CC(C)C[C@@H]1NC(=O)[C@@H](Cc2ccccc2)NC(=O)[C@H](CCN)NC(=O)[C@@H](NC(=O)[C@H](CN)NC(=O)[C@@H](NC(=O)C[C@H](CN)c2cccc(Cl)c2)[C@@H](C)O)CCNC(=O)[C@H]([C@@H](C)O)NC(=O)[C@H](CCN)NC(=O)[C@H](CCN)NC1=O [SPR206] (X1-T[Dap][Dab][Dab][dF]L[Dab][Dab]T; lactam 3-C (inferred)),Tmax,human,1.1 to 1.3 h
same,accumulation ratio for AUC0–inf,human,1.3-1.8
same,accumulation ratio for Cmax,human,1.1-1.3
same,geometric CV for AUC0-inf,human,6.9-17.4%
same,AUC0–8,"human, 25 mg","4,391 ± 740 h · ng/ml"
same,AUC0–inf,"human, 25 mg","5,197 ± 945 h · ng/ml"
same,AUC%ext,"human, 25 mg",10.0 ± 4.5 ng·h/mL
same,CL,"human, 25 mg",4.9 ± 0.9 L/h
same,Cmax,"human, 25 mg","1,410 ± 241 ng/ml"
same,Vz,"human, 25 mg",21.3 ± 3.6 L
same,half-life,"human, 25 mg",2.7 ± 0.2 h
same,AUC(0-t),"human, 25 mg, AUC0–8",5880 ng·h/mL
same,AUC(0-t),"human, 25 mg, AUC0–48",7680 ng·h/mL
same,AUC(0-inf),"human, 25 mg",7690 ng·h/mL
same,clearance,"human, 25 mg",73.3 mL/min
same,Cmax,"human, 25 mg, Cmax",1610 ng/mL
same,half-life,"human, 25 mg, Half-life",4 ± 0.6 h
same,Vd,"human, 25 mg",18.9 ± 2.6 L
same,AUC0–8,"human, 50 mg","7,955 ± 951 h · ng/ml"
same,AUC0–inf,"human, 50 mg","9,243 ± 1,417 h · ng/ml"
same,CL,"human, 50 mg",5.5 ± 0.8 L/h
same,Cmax,"human, 50 mg","2,525 ± 413 ng/ml"
same,half-life,"human, 50 mg",2.7 ± 0.3 h
same,AUC(0-t),"human, 50 mg, AUC0–8",10000 ng·h/mL
same,AUC(0-t),"human, 50 mg, AUC0–48",12400 ng·h/mL
same,AUC(0-inf),"human, 50 mg",12400 ng·h/mL
same,clearance,"human, 50 mg",83.3 mL/min
same,Cmax,"human, 50 mg, Cmax",2900 ng/mL
same,half-life,"human, 50 mg, Half-life",3.5 ± 0.9 h
same,Vd,"human, 50 mg",21.5 ± 1.8 L
same,AUC0–48,"human, 100 mg","29,828 ± 5,112 h · ng/ml"
same,AUC(0-t),"human, 100 mg, AUC0–8",21300 ng·h/mL
same,AUC(0-t),"human, 100 mg, AUC0–48",27500 ng·h/mL
same,AUC(0-inf),"human, 100 mg",27700 ng·h/mL
same,clearance,"human, 100 mg",80 mL/min
same,Cmax,"human, 100 mg, Cmax",6340 ng/mL
same,Vd,"human, 100 mg",20.8 ± 2.9 L
same,AUC0–8,"human, 150 mg","27,492 ± 3,452 h · ng/ml"
same,AUC0–inf,"human, 150 mg","30,981 ± 4,189 h · ng/ml"
same,CL,"human, 150 mg",4.9 ± 0.6 L/h
same,Cmax,"human, 150 mg","8,990 ± 1,056 ng/ml"
same,Vz,"human, 150 mg",19.6 ± 3.2 L
same,higher plasma AUC0–8 and Cmax relative to the mean values for the cohort,"human, 150 mg",approximately 23%
same,AUC(0-t),"human, 150 mg, AUC0–8",41500 ng·h/mL
same,AUC(0-t),"human, 150 mg, AUC0–48",55500 ng·h/mL
same,AUC(0-inf),"human, 150 mg",56000 ng·h/mL
same,clearance,"human, 150 mg",61.7 mL/min
same,Cmax,"human, 150 mg, Cmax",11500 ng/mL
same,Vd,"human, 150 mg",17.1 ± 2.1 L
same,half-life,"human, half-life",2.4 to 4.1 h
same,Tmax,"human, iv, 10 mg",1 h
same,AUC(0-t),"human, iv, 10 mg, AUC0–8",1560 ng·h/mL
same,AUC(0-inf),"human, iv, 10 mg",1810 ng·h/mL
same,clearance,"human, iv, 10 mg",93.3 mL/min
same,Cmax,"human, iv, 10 mg, Cmax",495 ± 46.5 ng/mL
same,half-life,"human, iv, 10 mg, Half-life",2.6 ± 0.1 h
same,Vd,"human, iv, 10 mg",21 ± 3.4 L
same,Tmax,"human, iv, 25 mg",1 h
same,AUC(0-t),"human, iv, 25 mg, AUC0–8",3810 ng·h/mL
same,AUC(0-inf),"human, iv, 25 mg",4440 ng·h/mL
same,clearance,"human, iv, 25 mg",96.7 mL/min
same,Cmax,"human, iv, 25 mg, Cmax",1290 ng/mL
same,half-life,"human, iv, 25 mg, Half-life",2.8 ± 0.2 h
same,Vd,"human, iv, 25 mg",23.5 ± 4.3 L
same,Tmax,"human, iv, 50 mg",1 h
same,AUC(0-t),"human, iv, 50 mg, AUC0–8",9380 ng·h/mL
same,AUC(0-inf),"human, iv, 50 mg",10700 ng·h/mL
same,clearance,"human, iv, 50 mg",78.3 mL/min
same,Cmax,"human, iv, 50 mg, Cmax",3420 ng/mL
same,half-life,"human, iv, 50 mg, Half-life",2.6 ± 0.3 h
same,Vd,"human, iv, 50 mg",17.8 ± 2.9 L
same,Tmax,"human, iv, 100 mg",1.1 h
same,AUC(0-t),"human, iv, 100 mg, AUC0–8",17300 ng·h/mL
same,AUC(0-inf),"human, iv, 100 mg",20400 ng·h/mL
same,clearance,"human, iv, 100 mg",83.3 mL/min
same,Cmax,"human, iv, 100 mg, Cmax",5330 ng/mL
same,half-life,"human, iv, 100 mg, Half-life",3 ± 0.3 h
same,Vd,"human, iv, 100 mg",21.4 ± 2.8 L
same,Tmax,"human, iv, 200 mg",1.1 h
same,AUC(0-t),"human, iv, 200 mg, AUC0–8",34500 ng·h/mL
same,AUC(0-inf),"human, iv, 200 mg",40900 ng·h/mL
same,clearance,"human, iv, 200 mg",81.7 mL/min
same,Cmax,"human, iv, 200 mg, Cmax",11300 ng/mL
same,half-life,"human, iv, 200 mg, Half-life",3.4 ± 0.7 h
same,Vd,"human, iv, 200 mg",24 ± 3.1 L
same,Tmax,"human, iv, 300 mg",1.1 h
same,AUC(0-t),"human, iv, 300 mg, AUC0–8",57700 ng·h/mL
same,AUC(0-inf),"human, iv, 300 mg",71000 ng·h/mL
same,clearance,"human, iv, 300 mg",70 mL/min
same,Cmax,"human, iv, 300 mg, Cmax",18200 ng/mL
same,half-life,"human, iv, 300 mg, Half-life",4.1 ± 0.4 h
same,Vd,"human, iv, 300 mg",25.4 ± 3.3 L
same,Tmax,"human, iv, 400 mg",1.1 h
same,AUC(0-t),"human, iv, 400 mg, AUC0–8",89300 ng·h/mL
same,clearance,"human, iv, 400 mg",61.7 mL/min
same,Cmax,"human, iv, 400 mg, Cmax",25400 ng/mL
same,half-life,"human, iv, 400 mg, Half-life",3.7 ± 0.5 h
same,Vd,"human, iv, 400 mg",19.4 ± 3.2 L
same,dose proportionality estimate (90% CI) for AUC0–inf,,"1.11 (1.07, 1.14)"
same,dose proportionality estimate (90% CI) for AUC0–last,,"1.14 (1.11, 1.18)"
same,dose proportionality estimate (90% CI) for Cmax,,"1.05 (1.02, 1.08)"
same,estimate of the exponent from the power model (90% CI) for AUC0–inf,,"1.03 (0.94, 1.12)"
same,estimate of the exponent from the power model (90% CI) for AUC0–last,,"1.07 (0.98, 1.16)"
same,estimate of the exponent from the power model (90% CI) for Cmax,,"1.03 (0.96, 1.10)"
same,intersubject variability in exposure,,10-25%
same,steady state achieved (based on Ctrough),,≤ 2 days
